Series [1] concerns HCV replicon cells Huh 9B. The experiment in a line: HCV replicon assay (luciferase readout). It is filed as cell-based. In a few lines:
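Compounds, made up at twice final strength (final DMSO 1%), were added to subgenomic replicon cells one day after plating. Incubation then ran 72 h at 37 °C, 5% CO2, without G418. Replication was quantified as firefly luciferase luminescence in lysed cells, with cytotoxicity assessed on a duplicate clear plate.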
On the technique in general: In antiviral work, replicon cells carry a viral genome segment that copies itself.

Series [2] relates to HCV replicon cells Huh 9B. The format is cell-based.
[3] abbreviates: Hepatitis C virus, 72 h, concentration reducing replicon level (luciferase activity) by 50% vs untreated cell control, 72 h incubation.
The mark [4] stands for this setting: concentration reducing total cell area by 50% relative to DMSO controls, methylene blue, absorbance 620 nm, 72 h incubation.

The structures appear in SMILES notation. pIC50: −log10 of the molar value. Read-outs that look alike come from different tables or passages of the source. A value given as a limit tells only on which side of the number the result lay.

The term pIC50 denotes the negative decadic logarithm of the IC50, by convention in mol/L. A low value points to a large IC50.

As to `Cc1ccc(C(=O)Nc2ccc(N3CCOCC3)cc2)cc1-c1ccc(C(=O)NCc2cccc(Br)c2)cc1` [Example 52, 6-Methyl-biphenyl-3,4′-dicarboxylic acid 4′-(3-bromo-benzylamide) 3-[(4-morpholin-4-yl-phenyl)-amide]], the pIC50 in series [1] was 5.30 to 6.00. Further, the TD50 result in series [2] was “** (key: * < 50 μM; ** > 50 μM)”.
The compound `Cc1ccc(C(=O)Nc2ccc(CN3CCS(=O)(=O)CC3)cc2)cc1-c1ccc(C(=O)Nc2ccc(CN3CCS(=O)(=O)CC3)cc2)cc1` [Example 129, 6-Methyl-biphenyl-3,4′-dicarboxylic acid bis-{[4-(1,1-dioxo-1lambda*6*-thiomorpholin-4-ylmethyl)-phenyl]-amide}] showed a negative-log IC50 (pIC50) in series [1] (setting [3]) of over 6.00. Also, in series [2] (setting [4]), the TD50 result is “* (* < 50 μM)”.
In turn, `Cc1ccc(C(=O)Nc2ccc(N3CCOCC3)cc2)cc1-c1ccc(C(=O)N[C@H](CO)Cc2c[nH]c3ccccc23)cc1` [Example 51, 6-Methyl-biphenyl-3,4′-dicarboxylic acid 4′-{[(S)-1-hydroxymethyl-2-(1H-indol-3-yl)-ethyl]-amide} 3-[(4-morpholin-4-yl-phenyl)-amide]] showed a negative logarithm of the IC50 (pIC50) in series [1] of 5.30 to 6.00. For the same compound, in series [2], the TD50 entry was “** (key: * < 50 μM; ** > 50 μM)”.
Take `Cc1ccc(NC(=O)c2ccc(N3CCOCC3)cc2)cc1-c1ccc(C(=O)Nc2ccc(CN3CCS(=O)(=O)CC3)cc2)cc1` [Example 87, 2′-Methyl-5′-(4-morpholin-4-yl-benzoylamino)-biphenyl-4-carboxylic acid [4-(1,1-dioxo-1lambda*6*-thiomorpholin-4-ylmethyl)-phenyl]-amide]: the pIC50 in series [1] (setting [3]) was over 6.00. Besides, in series [2] (setting [4]), the TD50 result is on record as “** (** > 50 μM)”.
Regarding `Cc1cc(NC(=O)C2CC2)ccc1-c1cccc(C(=O)Nc2ccc(CN3CCS(=O)(=O)CC3)cc2)c1` [Example 131, 4′-(Cyclopropanecarbonyl-amino)-2′-methyl-biphenyl-3-carboxylic acid [4-(1,1-dioxo-1lambda*6*-thiomorpholin-4-ylmethyl)-phenyl]-amide], the pIC50 in series [1] (setting [3]) was 5.30 to 6.00. For the same compound, in series [2] (setting [4]), the TD50 result was “* (* < 50 μM)”.
The like results for `COc1ccc(C(=O)Nc2ccc(-c3cc(C(=O)Nc4ccc(N5CCOCC5)cc4)ccc3C)cc2)cc1OC` [Example 110, 4′-(3,4-Dimethoxy-benzoylamino)-6-methyl-biphenyl-3-carboxylic acid (4-morpholin-4-yl-phenyl)-amide] were, in that order, 5.30 to 6.00 and “** (** > 50 μM)”.
As to `Cc1ccc(C(=O)Nc2ccc(N3CCOCC3)cc2)cc1-c1ccc(C(=O)Nc2cc(Br)cc3cc[nH]c23)cc1` [Example 55, 6-Methyl-biphenyl-3,4′-dicarboxylic acid 4′-[(5-bromo-1H-indol-7-yl)-amide] 3-[(4-morpholin-4-yl-phenyl)-amide]], the pIC50 in series [1] is 5.30 to 6.00. Besides, the TD50 entry in series [2] is “** (key: * < 50 μM; ** > 50 μM)”.
Take `Cc1ccc(NC(=O)c2ccc(N3CCOCC3)cc2)cc1-c1ccc(C(=O)Nc2ccc3[nH]c(C(F)(F)F)nc3c2)cc1` [Example 85, 2′-Methyl-5′-(4-morpholin-4-yl-benzoylamino)-biphenyl-4-carboxylic acid (2-trifluoromethyl-1H-benzoimidazol-5-yl)-amide]: the negative-log IC50 (pIC50) in series [1] (setting [3]) is 5.30 to 6.00. In addition, the TD50 entry in series [2] (setting [4]) is reported as “** (** > 50 μM)”.
As to `Cc1ccc(CNCc2cccc(Cl)c2)cc1-c1ccc(C(=O)Nc2ccc(CN3CCS(=O)(=O)CC3)cc2)cc1` [Example 199, 5′-[(3-Chloro-benzylamino)-methyl]-2′-methyl-biphenyl-4-carboxylic acid [4-(1,1-dioxo-1lambda*6*-thiomorpholin-4-ylmethyl)-phenyl]-amide], in series [1] (Hepatitis C virus, concentration reducing replicon level (luciferase activity) by 50% vs untreated cell control, 72 h incubation), the negative-log IC50 (pIC50) is 5.30 to 6.00. For the same compound, the TD50 entry in series [2] (setting [4]) was “* (* < 50 μM)”.
`Cc1ccc(C(=O)Nc2ccc(N3CCOCC3)cc2)cc1-c1ccc(CNCCc2cnc[nH]2)cc1` [Example 100, 4′-{[2-(3H-Imidazol-4-yl)-ethylamino]-methyl}-6-methyl-biphenyl-3-carboxylic acid (4-morpholin-4-yl-phenyl)-amide] gave a negative logarithm of the IC50 (pIC50) in series [1] (setting [3]) of 5.30 to 6.00. Further, the TD50 entry in series [2] (setting [4]) is “** (** > 50 μM)”.

The values above are taken from patent publication US8008303B2, “Biphenyl derivatives and their use in treating hepatitis C” (AstraZeneca AB, priority 2005, dated 2011).
